According to PMC11971462, “Generation and validation of a novel multitarget small molecule in glioblastoma” (Cell Death & Disease, 2025):

Test system: GNS166 cells

Compound: C#CCN(Cc1cc2cc(OCCCN3CCCCC3)ccc2n1S(=O)(=O)c1ccccc1)C(=O)CCCCCCC(=O)NO [DDI]
- A2M log2FoldChange: 2.665
- ABCD2 log2FoldChange: 5.236
- ABCG1 log2FoldChange: 3.412
- ABLIM2 log2FoldChange: 4.711
- ABLIM3 log2FoldChange: 3.639
- ACSL6 log2FoldChange: 2.978
- ACSM3 log2FoldChange: 2.457
- ACTBL2 log2FoldChange: 4.551
- ADAMTS2 log2FoldChange: 6.235
- ADAMTS7 log2FoldChange: 2.1929
- ADAMTS8 log2FoldChange: 3.596
- ADCYAP1R1 log2FoldChange: 3.806
- ADGRG4 log2FoldChange: 6.334
- ADRB1 log2FoldChange: 2.369
- AKR1C3 log2FoldChange: 4.683
- ALDH1A1 log2FoldChange: 3.2419
- ALPL log2FoldChange: 3.15
- AMER2 log2FoldChange: 3.985
- ANGPTL4 log2FoldChange: 2.513
- ANGPTL6 log2FoldChange: 3.595
- ANKRD1 log2FoldChange: 3.607
- ANKRD24 log2FoldChange: 3.419
- ANO5 log2FoldChange: 4.46
- ANOS1 log2FoldChange: 4.667
- APC2 log2FoldChange: 2.08
- ARHGAP4 log2FoldChange: 2.074
- ARMH1 log2FoldChange: 2.688
- ARPP21 log2FoldChange: 2.016
- ASPHD1 log2FoldChange: 2.1055
- ASXL3 log2FoldChange: 3.768
- ATCAY log2FoldChange: 4.501
- ATP6V1C2 log2FoldChange: 2.012
- AZIN2 log2FoldChange: 3.645
- B3GALT1 log2FoldChange: 2.502
- BAIAP3 log2FoldChange: 2.116
- BEST1 log2FoldChange: 2.175
- BMF log2FoldChange: 2.488
- BMP7 log2FoldChange: 2.795
- BRINP1 log2FoldChange: 6.679
- C2orf81 log2FoldChange: 2.053
- C5AR1 log2FoldChange: 2.131
- C14orf132 log2FoldChange: 5.7
- CACNA1H log2FoldChange: 4.953
- CACNA2D2 log2FoldChange: 5.172
- CADM3 log2FoldChange: 6.675
- CALHM5 log2FoldChange: 2.928
- CALY log2FoldChange: 5.625
- CAMK2N2 log2FoldChange: 2.028
- CARMIL2 log2FoldChange: 3.403
- CARMIL3 log2FoldChange: 3.869
- CCDC39 log2FoldChange: 4.487
- CCDC92B log2FoldChange: 5.8
- CCDC110 log2FoldChange: 2.494
- CCDC148 log2FoldChange: 2.41
- CCDC160 log2FoldChange: 2.467
- CCDC181 log2FoldChange: 2.436
- CCDC183 log2FoldChange: 2.45
- CCM2L log2FoldChange: 4.732
- CD22 log2FoldChange: 2.4858
- CDYL2 log2FoldChange: 2.827
- CECR2 log2FoldChange: 4.106
- CELF5 log2FoldChange: 4.62
- CFAP43 log2FoldChange: 2.577
- CFAP54 log2FoldChange: 2.381
- CFAP57 log2FoldChange: 3.908
- CFAP298-TCP10L log2FoldChange: 2.613
- CHGB log2FoldChange: 2.484
- CHRD log2FoldChange: 2.364
- CHST9 log2FoldChange: 3.903
- CKMT1A log2FoldChange: 5.211
- CLEC19A log2FoldChange: 2.635
- CLIC5 log2FoldChange: 2.4345
- COL2A1 log2FoldChange: 3.044
- COL6A3 log2FoldChange: 4.472
- CPED1 log2FoldChange: 2.118
- CPLX1 log2FoldChange: 3.672
- CPM log2FoldChange: 2.471
- CRABP1 log2FoldChange: 4.4
- CRTAC1 log2FoldChange: 4.102
- CRYAB log2FoldChange: 3.702
- CSMD2 log2FoldChange: 3.997
- CSRNP3 log2FoldChange: 2.27
- CTSH log2FoldChange: 2.081
- CYP1A1 log2FoldChange: 3.053
- CYP2S1 log2FoldChange: 2.662
- CYP4F22 log2FoldChange: 6.411
- DAPL1 log2FoldChange: 2.233
- DCAF8L1 log2FoldChange: 5.4838
- DDIT4L log2FoldChange: 2.364
- DENND6B log2FoldChange: 2.257
- DGKI log2FoldChange: 3.175
- DHH log2FoldChange: 3.784
- DLL3 log2FoldChange: 3.7947
- DLX3 log2FoldChange: 2.236
- DMBX1 log2FoldChange: 2.746
- DNAAF1 log2FoldChange: 4.023
- DNAH7 log2FoldChange: 3.23
- DNAI1 log2FoldChange: 4.453
- DNAI3 log2FoldChange: 2.636
- DNAI7 log2FoldChange: 4.138
- DOCK5 log2FoldChange: 2.9913
- DTX1 log2FoldChange: 4.306
- DUSP9 log2FoldChange: 2.25
- EAF2 log2FoldChange: 2.082
- EDA log2FoldChange: 4.8176
- EFCAB12 log2FoldChange: 2.979
- EGFL7 log2FoldChange: 2.196
- EGLN3 log2FoldChange: 2.576
- EID3 log2FoldChange: 2.42
- ELAPOR2 log2FoldChange: 4.1571
- ELOVL3 log2FoldChange: 3.984
- EPHB6 log2FoldChange: 4.725
- ERBB3 log2FoldChange: 2.384
- ERVV-1 log2FoldChange: 6.315
- FAIM2 log2FoldChange: 2.169
- FAM43B log2FoldChange: 2.485
- FAM71F1 log2FoldChange: 2.207
- FAM78A log2FoldChange: 2.232
- FAM107A log2FoldChange: 2.013
- FAM131C log2FoldChange: 2.228
- FANK1 log2FoldChange: 2.642
- FAT2 log2FoldChange: 2.483
- FBLN2 log2FoldChange: 5.485
- FBLN5 log2FoldChange: 4.419
- FBXO2 log2FoldChange: 2.58
- FGF13 log2FoldChange: 3.276
- FIBIN log2FoldChange: 2.106
- FKBP1B log2FoldChange: 2.251
- FOLR1 log2FoldChange: 2.626
- FOXO6 log2FoldChange: 2.278
- FRK log2FoldChange: 2.849
- FSTL5 log2FoldChange: 5.479
- FXYD6 log2FoldChange: 4.385
- GABRB1 log2FoldChange: 3.597
- GABRD log2FoldChange: 5.7221
- GABRQ log2FoldChange: 7.349
- GALNT6 log2FoldChange: 2.317
- GDPD1 log2FoldChange: 2.176
- GFY log2FoldChange: 3.527
- GLB1L2 log2FoldChange: 6.148
- GNG4 log2FoldChange: 2.04
- GNG8 log2FoldChange: 3.102
- GPC3 log2FoldChange: 3.37
- GPC5 log2FoldChange: 2.595
- GRB14 log2FoldChange: 2.215
- GRHL3 log2FoldChange: 2.762
- GRIA2 log2FoldChange: 4.688
- GRIA4 log2FoldChange: 3.3
- GRID2IP log2FoldChange: 3.773
- GRIN3B log2FoldChange: 5.631
- GSTO2 log2FoldChange: 2.18
- HAND1 log2FoldChange: 4.809
- HAPLN3 log2FoldChange: 2.0919
- HBA1 log2FoldChange: 5.471
- HBA2 log2FoldChange: 4.292
- HEPHL1 log2FoldChange: 2.403
- HGF log2FoldChange: 3.276
- HHIP log2FoldChange: 3.119
- HIF3A log2FoldChange: 5.349
- HLA-DMB log2FoldChange: 2.342
- HMCN2 log2FoldChange: 3.444
- HOATZ log2FoldChange: 4.467
- HOXA13 log2FoldChange: 2.2385
- HPCAL4 log2FoldChange: 5.769
- HSPA2 log2FoldChange: 3.557
- HTR6 log2FoldChange: 3.33
- ID4 log2FoldChange: 2.033
- IER3 log2FoldChange: 2.061
- IFITM10 log2FoldChange: 2.3164
- IGFBP3 log2FoldChange: 2.818
- IGFN1 log2FoldChange: 4.535
- IGLON5 log2FoldChange: 3.821
- IGSF1 log2FoldChange: 6.9503
- IGSF9 log2FoldChange: 5.356
- IGSF11 log2FoldChange: 3.128
- IL1A log2FoldChange: 2.307
- IL18R1 log2FoldChange: 2.881
- IL21R log2FoldChange: 5.107
- INSRR log2FoldChange: 3.812
- INSYN1 log2FoldChange: 2.89
- ITGAX log2FoldChange: 6.404
- ITIH5 log2FoldChange: 7.18
- JAK3 log2FoldChange: 3.281
- JAKMIP1 log2FoldChange: 6.861
- JPH3 log2FoldChange: 7.177
- JPH4 log2FoldChange: 6.374
- KCNH7 log2FoldChange: 3.228
- KCNK3 log2FoldChange: 2.911
- KCNN1 log2FoldChange: 6.119
- KCNN3 log2FoldChange: 2.959
- KCNQ2 log2FoldChange: 7.079
- KCNQ3 log2FoldChange: 6.35
- KCNU1 log2FoldChange: 3.505
- KDR log2FoldChange: 2.185
- KIAA1755 log2FoldChange: 3.46
- KIF26A log2FoldChange: 3.322
- KIRREL2 log2FoldChange: 3.351
- KISS1R log2FoldChange: 5.189
- KLRG1 log2FoldChange: 3.015
- KNDC1 log2FoldChange: 5.452
- KRT81 log2FoldChange: 2.561
- LAMA1 log2FoldChange: 4.927
- LANCL3 log2FoldChange: 2.567
- LGI3 log2FoldChange: 4.02
- LGI4 log2FoldChange: 3.612
- LHX6 log2FoldChange: 2.492
- LINGO1 log2FoldChange: 3.184
- LMX1B log2FoldChange: 4.789
- LRAT log2FoldChange: 2.695
- LRRC4B log2FoldChange: 6.224
- LRRC63 log2FoldChange: 3.034
- LTK log2FoldChange: 2.536
- LUM log2FoldChange: 2.768
- MACC1 log2FoldChange: 2.159
- MAGEC1 log2FoldChange: 3.487
- MAK log2FoldChange: 2.409
- MDFI log2FoldChange: 3.485
- MEFV log2FoldChange: 4.614
- MEGF11 log2FoldChange: 3.91
- MGAT3 log2FoldChange: 4.144
- MME log2FoldChange: 2.372
- MORN3 log2FoldChange: 2.131
- MPP7 log2FoldChange: 2.694
- MRO log2FoldChange: 3.525
- MT3 log2FoldChange: 2.775
- MYEOV log2FoldChange: 3.238
- MYO1D log2FoldChange: 2.853
- MYOZ2 log2FoldChange: 6.009
- NALF2 log2FoldChange: 4.418
- NAT16 log2FoldChange: 3.0286
- NCALD log2FoldChange: 2.788
- NCAN log2FoldChange: 5.945
- NCCRP1 log2FoldChange: 5.22
- NECTIN4 log2FoldChange: 2.229
- NFASC log2FoldChange: 2.355
- NFATC4 log2FoldChange: 2.3144
- NFIA log2FoldChange: 2.067
- NKD1 log2FoldChange: 3.284
- NKX1-2 log2FoldChange: 2.899
- NLRP1 log2FoldChange: 3.5059
- NME5 log2FoldChange: 2.6336
- NPY2R log2FoldChange: 3.759
- NSG1 log2FoldChange: 5.809
- NTNG2 log2FoldChange: 2.905
- NXPH3 log2FoldChange: 2.7857
- OLFM2 log2FoldChange: 3.458
- OLIG2 log2FoldChange: 6.361
- OTOGL log2FoldChange: 4.502
- PALM3 log2FoldChange: 2.0048
